From BindingDB's records for patent US10011627 (Youngene Therapeutics, 2018)

How the values were obtained:
[1] = target: T1, Sodium/glucose cotransporter 1 (Homo sapiens, UniProt P13866); assay: Inhibitory Activity Assay
T1 sequence (P13866 whole entry): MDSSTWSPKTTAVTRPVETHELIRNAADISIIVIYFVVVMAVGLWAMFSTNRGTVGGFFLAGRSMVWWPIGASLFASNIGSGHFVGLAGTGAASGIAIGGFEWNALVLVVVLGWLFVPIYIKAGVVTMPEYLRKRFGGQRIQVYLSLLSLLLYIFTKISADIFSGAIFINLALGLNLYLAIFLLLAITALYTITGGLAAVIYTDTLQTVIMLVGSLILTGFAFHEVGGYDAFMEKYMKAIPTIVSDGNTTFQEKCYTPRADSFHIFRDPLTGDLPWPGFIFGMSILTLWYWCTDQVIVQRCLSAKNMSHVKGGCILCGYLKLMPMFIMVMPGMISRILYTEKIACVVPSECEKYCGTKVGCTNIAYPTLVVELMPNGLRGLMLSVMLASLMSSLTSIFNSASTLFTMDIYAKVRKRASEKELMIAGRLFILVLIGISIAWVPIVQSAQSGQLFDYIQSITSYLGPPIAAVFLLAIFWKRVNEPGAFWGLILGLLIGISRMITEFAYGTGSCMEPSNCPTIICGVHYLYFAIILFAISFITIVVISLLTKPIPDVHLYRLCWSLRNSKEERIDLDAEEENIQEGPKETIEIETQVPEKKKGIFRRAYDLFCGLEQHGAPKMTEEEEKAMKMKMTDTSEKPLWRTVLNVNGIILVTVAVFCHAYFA
Protocol: (§1) The following method was used to determine the inhibitory activity of the compounds of the present invention on SGLT1 and SGLT2. The experimental method is summarized as follows:SGLT1 and SGLT2 transiently transferred HEK293 cells were seeded in a 96-well plate. The density of the cells was 1-1.5×104. The cells were cultured at 37° C. and 5% CO2 for 48 hours, and then washed twice with 200 μL sodium-free buffer. 90 μL sodium-containing buffer of the test compound at different concentrations was added to the well. Each test compound was repeated in three wells for each concentration. The cells were cultured at 37° C. for 15 minutes, then 10 μL (in number 0.1 μCi [14C]) Methyl α-D-glucopyranoside was added to each well of the 96-well plate. The cells were further cultured at 37° C. for 2 hours, then the supernatant was discarded. The cells were washed twice with pre-chilled sodium-free buffer and then dissolved in 100 μL NaOH (200 mM). 100 μL scintillation solution was added, and mixed well. Scintiloscope was used for the quantitative detection of 14C.

[2] = target: T2, Sodium/glucose cotransporter 2 (Homo sapiens, UniProt P31639); assay: Inhibitory Activity Assay
T2 sequence (P31639 whole entry): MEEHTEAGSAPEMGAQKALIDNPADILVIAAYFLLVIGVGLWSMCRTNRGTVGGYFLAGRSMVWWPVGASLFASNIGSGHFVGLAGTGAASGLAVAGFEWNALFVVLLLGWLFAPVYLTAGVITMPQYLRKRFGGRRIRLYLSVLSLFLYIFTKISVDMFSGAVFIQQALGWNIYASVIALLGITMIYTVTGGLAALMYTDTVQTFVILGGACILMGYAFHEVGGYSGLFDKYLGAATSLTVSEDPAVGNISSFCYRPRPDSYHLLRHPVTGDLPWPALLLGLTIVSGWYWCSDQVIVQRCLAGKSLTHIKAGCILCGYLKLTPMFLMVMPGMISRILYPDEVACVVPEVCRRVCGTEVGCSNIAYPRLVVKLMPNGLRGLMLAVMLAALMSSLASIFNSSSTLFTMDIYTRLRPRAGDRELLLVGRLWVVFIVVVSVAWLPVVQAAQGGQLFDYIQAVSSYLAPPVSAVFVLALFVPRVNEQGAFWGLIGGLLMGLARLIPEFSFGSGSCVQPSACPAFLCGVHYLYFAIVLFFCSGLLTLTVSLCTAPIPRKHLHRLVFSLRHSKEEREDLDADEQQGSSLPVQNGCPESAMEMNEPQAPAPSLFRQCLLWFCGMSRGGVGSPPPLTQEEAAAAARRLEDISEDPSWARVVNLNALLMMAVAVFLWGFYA
Protocol: as §1

SMILES	IC50 [1] [µM]	IC50 [2] [µM]
OC[C@H]1S[C@@H](c2ccc(C3CC3)c(Cc3ccc4c(c3)OCCO4)c2)[C@H](O)[C@@H](O)[C@@H]1O [US10011627, 5]	0.301	0.0043
Cc1cc(O)c([C@@H]2S[C@H](CO)[C@@H](O)[C@H](O)[C@H]2O)cc1Cc1ccc2c(c1)OCCO2 [US10011627, 6]	0.0999	0.00259
